Test results from US20150284375A1 (AJINOMOTO CO., INC., priority 2012, published 2015).
Like-named read-outs stand apart in the source and are kept apart here.

Molecular target: T1, human TRPA1 (Homo sapiens, UniProt O75762)
T1 construct: expressed in transfected cells; host or cells: Human embryonic kidney-derived 293T cells, transiently transfected with the pcDNA3.1/zeo(+) human TRPA1 plasmid
Assay: Measurement of TRPA1 antagonist activity (intracellular calcium increase, FLIPR, allylisothiocyanate stimulation)
Type: cell-based
Details: read-out: antagonism hTRPA1
Procedure, shortened: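 IC50 derives from a sigmoid fit of inhibition of the 5-min FLIPR fluorescence change evoked by 20 μM allylisothiocyanate, normalized between agonist and buffer responses. Test substance, diluted in HBSS/20 mM HEPES pH 7.2 plus 0.1% BSA, was applied 10 min beforehand at room temperature to Calcium4-loaded 293T cells transiently expressing human TRPA1.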

[1] = 293T cells transfected with human TRPA1, allylisothiocyanate 20 μM, concentration for 50% inhibitory rate
[2] = allylisothiocyanate 20 μM stimulation, FLIPR calcium assay

T1 sequence (O75762 whole entry): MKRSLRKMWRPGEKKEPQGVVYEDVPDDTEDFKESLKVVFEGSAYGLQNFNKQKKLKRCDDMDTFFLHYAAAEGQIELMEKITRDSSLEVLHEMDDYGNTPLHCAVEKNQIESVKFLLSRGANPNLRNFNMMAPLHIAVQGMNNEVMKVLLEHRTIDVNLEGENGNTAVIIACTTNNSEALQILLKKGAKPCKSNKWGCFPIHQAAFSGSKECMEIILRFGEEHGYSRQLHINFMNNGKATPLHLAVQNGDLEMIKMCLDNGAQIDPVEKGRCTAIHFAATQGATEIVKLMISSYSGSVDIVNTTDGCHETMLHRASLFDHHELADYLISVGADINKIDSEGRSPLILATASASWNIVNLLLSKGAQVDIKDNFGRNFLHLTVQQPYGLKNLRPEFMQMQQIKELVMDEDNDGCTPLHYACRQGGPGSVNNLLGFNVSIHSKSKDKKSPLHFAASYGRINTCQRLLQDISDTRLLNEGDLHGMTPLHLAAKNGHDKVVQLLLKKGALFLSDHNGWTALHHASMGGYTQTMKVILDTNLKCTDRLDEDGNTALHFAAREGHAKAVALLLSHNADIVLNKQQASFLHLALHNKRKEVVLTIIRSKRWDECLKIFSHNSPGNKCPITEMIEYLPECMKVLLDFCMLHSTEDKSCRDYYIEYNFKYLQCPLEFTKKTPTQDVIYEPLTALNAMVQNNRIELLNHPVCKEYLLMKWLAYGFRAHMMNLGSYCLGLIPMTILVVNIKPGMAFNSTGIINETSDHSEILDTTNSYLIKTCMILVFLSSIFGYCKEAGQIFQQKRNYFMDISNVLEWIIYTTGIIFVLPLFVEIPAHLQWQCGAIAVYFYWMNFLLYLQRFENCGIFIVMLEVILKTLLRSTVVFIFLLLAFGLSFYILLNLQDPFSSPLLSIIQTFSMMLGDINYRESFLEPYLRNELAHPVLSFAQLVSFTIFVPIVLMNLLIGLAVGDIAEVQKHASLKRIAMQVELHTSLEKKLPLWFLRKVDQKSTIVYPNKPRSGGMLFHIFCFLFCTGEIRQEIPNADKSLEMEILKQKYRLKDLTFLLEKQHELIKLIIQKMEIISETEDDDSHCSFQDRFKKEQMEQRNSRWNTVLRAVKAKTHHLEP

SMILES | IC50 [1] [nM] | IC50 [2] [nM]
O=C(NCc1c(F)cc(Oc2cccc(C(F)(F)F)c2)cc1F)[C@@H]1CCCN1S(=O)(=O)c1ccc(Cl)s1 [Example 26, (2S)-1-(5-chlorothiophene-2-sulfonyl)-N-({2,6-difluoro-4-[3-(trifluoro-methyl)phenoxy]phenyl}methyl)pyrrolidine-2-carboximide] | 930 | –
O=C(NCc1ccc(COc2cccc(C(F)(F)F)c2)cc1)[C@@H]1CCCN1S(=O)(=O)c1ccc(Cl)s1 [Example 50] | 242 | –
O=C(NCc1ccc(COc2cccc(C(F)(F)F)c2)cc1C(F)(F)F)[C@@H]1CCCN1S(=O)(=O)c1ccc(Cl)s1 [Example 78] | 120 | –
O=C(NCc1ccc(COc2cccc(F)c2)cc1)[C@@H]1CCCN1S(=O)(=O)c1ccc(Cl)s1 [Example 55, (2S)-1-(5-chlorothiophene-2-sulfonyl)-N-({4-[(3-fluoro-phenoxy)methyl]phenyl}methyl)pyrrolidine-2-carboxamide] | 230 | –
O=C(NCc1cccc(OCc2ccccc2)c1)[C@@H]1CCCN1S(=O)(=O)c1ccc(Cl)s1 [Example 95] | 22 | –
O=C(NCc1ccc(COc2ccccc2)cc1)[C@@H]1CCCN1S(=O)(=O)c1ccc(F)c(F)c1 [Example 84] | 1100 | –
O=C(NCc1ccc(COc2ccccc2Cl)cc1)[C@@H]1CCCN1S(=O)(=O)c1ccc(Cl)s1 [Example 64, (2S)-N-({4-[(2-chlorophenoxy)methyl]phenyl}methyl)-1-(5-chlorothiophene-2-sulfonyl)pyrrolidine-2-carboxamide] | 480 | –
O=C(NCc1ccc(Oc2cccc(OC(F)(F)F)c2)cc1)[C@@H]1CCCN1S(=O)(=O)c1ccc(Cl)s1 [Example 7, (2S)-1-(5-chlorothiophene-2-sulfonyl)-N-({4-[3-(trifluoromethoxy)phenoxy]phenyl}methyl)pyrrolidine-2-carboxamide] | 81 | –
COC(=O)c1cccc(OCc2ccc(CNC(=O)[C@@H]3CCCN3S(=O)(=O)c3ccc(Cl)s3)cc2)c1 [Example 58, methyl 3-((4-({[(2S)-1-(5-chlorothiophene-2-sulfonyl)pyrrolidine-2-carbonyl]amino}methyl)phenyl)methoxy)benzoate] | 310 | –
O=C(NCc1nc(COc2ccc(C(F)(F)F)cc2)cs1)[C@@H]1CCCN1S(=O)(=O)c1ccc(Cl)s1 [Example 88] | 370 | –
O=C(NCc1cccc(Oc2ccc(OC(F)(F)F)cc2)c1)[C@@H]1CCCN1S(=O)(=O)c1ccc(Cl)s1 [Example 16, (2S)-1-(5-chlorothiophene-2-sulfonyl)-N-({3-[4-(trifluoro-methoxy)phenoxy]phenyl}methyl)pyrrolidine-2-carboxamide] | 100 | –
CC(NC(=O)[C@@H]1CCCN1S(=O)(=O)c1ccc(Cl)s1)c1ccc(COc2ccccc2)cc1 (stereo partly drawn) [Example 72] | 3800 | –
Cc1ccccc1OCc1ccc(CNC(=O)[C@@H]2CCCN2S(=O)(=O)c2ccc(Cl)s2)cc1 [Example 61, (2S)-1-(5-chlorothiophene-2-sulfonyl)-N-({4-[(2-methyl-phenoxy)methyl]phenyl}methyl)pyrrolidine-2-carboxamide] | 190 | –
O=C(NCc1ccccc1COc1ccc(C(F)(F)F)cc1)[C@@H]1CCCN1S(=O)(=O)c1ccc(Cl)s1 [Example 80] | 270 | –
O=C(NCc1ccc(COc2ccccc2)cc1)[C@@H]1CCCN1S(=O)(=O)c1ccc(F)cc1 [Example 82, (2S)-1-[(4-fluorophenyl)sulfonyl]-N-{[4-(phenoxymethyl)phenyl]methyl}pyrrolidine-2-carboxamide] | 1200 | –
O=C(NCc1ccc(COc2ccc(C(F)(F)F)cc2)cc1C(F)(F)F)[C@@H]1CCCN1S(=O)(=O)c1ccc(Cl)s1 [Example 77] | 100 | –
O=C(NCc1ccc(COc2ccc(OC(F)(F)F)cc2)cc1)[C@@H]1CCCN1S(=O)(=O)c1ccc(Cl)s1 [Example 43, (2S)-1-(5-chlorothiophene-2-sulfonyl)-N-((4-{[4-(trifluoro-methoxy)phenoxy]methyl}phenyl)methyl)pyrrolidine-2-carboxamide] | 380 | –
O=C(NCc1nc(COc2cccc(C(F)(F)F)c2)cs1)[C@@H]1CCCN1S(=O)(=O)c1ccc(Cl)s1 [Example 89] | 340 | –
O=C(NCc1cccc(Oc2cccc(OC(F)(F)F)c2)c1)[C@@H]1CCCN1S(=O)(=O)c1ccc(Cl)s1 [Example 20, (2S)-1-(5-chlorothiophene-2-sulfonyl)-N-({3-[3-(trifluoro-methoxy)phenoxy]phenyl}methyl)pyrrolidine-2-carboxamide] | 71 | –
O=C(NCc1ccc(Oc2cccc(C(F)(F)F)c2)cc1)[C@@H]1CCN1S(=O)(=O)c1ccc(Cl)s1 [Example 31, (2S)-1-(5-chlorothiophene-2-sulfonyl)-N-({4-[3-(trifluoro-methyl)phenoxy]phenyl}methyl)azetidine-2-carboxamide] | 900 | –
COc1ccccc1OCc1ccc(CNC(=O)[C@@H]2CCCN2S(=O)(=O)c2ccc(Cl)s2)cc1 [Example 62, (2S)-1-(5-chlorothiophene-2-sulfonyl)-N-({4-[(2-methoxy-phenoxy)methyl]phenyl}methyl)pyrrolidine-2-carboxamide] | 1100 | –

Further lines, results first:

IC50 [1] [nM] | IC50 [2] [nM] | SMILES
– | 830 | O=C(NCc1cccc(OCc2ccc(C(F)(F)F)cc2)c1)[C@@H]1CCCN1S(=O)(=O)c1cscn1 [Example 218, (2S)-1-thiazol-4-ylsulfonyl-N-[[3-[[4-(trifluoromethyl)phenyl]methoxy]phenyl]methyl]pyrrolidine-2-carboxamide]
– | 290 | O=C(NCc1cccc(OCc2ccoc2)c1)[C@@H]1CCCN1S(=O)(=O)c1ccc(F)cc1 [Example 139, (2S)-1-(4-fluorophenyl)sulfonyl-N-[[3-(3-furylmethoxy)phenyl]methyl]pyrrolidine-2-carboxamide]
– | 2200 | O=C(NCc1cccc(OCc2ccc(C(F)(F)F)cc2)c1)[C@@H]1CCCN1S(=O)(=O)c1ccc(OC(F)F)cc1 [Example 199, (2S)-1-[4-(difluoromethoxy)phenyl]sulfonyl-N-[[3-[[4-(trifluoromethyl)phenyl]methoxy]phenyl]methyl]pyrrolidine-2-carboxamide]
– | 8300 | C[C@H](Oc1cccc(CNC(=O)[C@@H]2CCCN2S(=O)(=O)c2ccc(F)cc2)c1)c1ccccn1 [Example 147, (2S)-1-(4-fluorophenyl)sulfonyl-N-[[3-[(1S)-1-(2-pyridyl)ethoxy]phenyl]methyl]pyrrolidine-2-carboxamide]
– | 71 | O=C(NCc1cccc(Oc2ccc(C(F)(F)F)cc2)c1)[C@@H]1CCCN1S(=O)(=O)c1cccc(F)c1 [Example 186, (2S)-1-(3-fluorophenyl)sulfonyl-N-[[3-[4-(trifluoromethyl)phenoxy]phenyl]methyl]pyrrolidine-2-carboxamide]
– | 350 | O=C(NCc1cccc(OCc2ccc(C(F)(F)F)cc2)c1)[C@@H]1CC=CCN1S(=O)(=O)c1ccc(F)cc1 [Example 213, (2S)-1-(4-fluorophenyl)sulfonyl-N-[[3-[[4-(trifluoromethyl)phenyl]methoxy]phenyl]methyl]-3,6-dihydro-2H-pyridine-2-carboxamide]
– | 340 | O=C(NCc1cccc(OCCc2ccccc2)c1)[C@@H]1CCCN1S(=O)(=O)c1ccc(F)cc1 [Example 148, (2S)-1-(4-fluorophenyl)sulfonyl-N-[(3-phenethyloxyphenyl)methyl]pyrrolidine-2-carboxamide]
– | 150 | O=C(NCc1cccc(OCc2ccc(C(F)(F)F)cc2)c1)[C@@H]1C[C@@H](F)CN1S(=O)(=O)c1ccc(F)cc1 [Example 165, (2S,4R)-4-fluoro-1-(4-fluorophenyl)sulfonyl-N-[[3-[[4-(trifluoromethyl)phenyl]methoxy]phenyl]methyl]pyrrolidine-2-carboxamide]
– | 550 | C[C@H](Oc1cccc(CNC(=O)[C@@H]2CCCN2S(=O)(=O)c2ccc(F)cc2)c1)c1ccccc1 [Example 144, (2S)-1-(4-fluorophenyl)sulfonyl-N-[[3-[(1S)-1-phenylethoxy]phenyl]methyl]pyrrolidine-2-carboxamide]
– | 210 | O=C(NCc1cccc(Oc2ccc(C(F)(F)F)nc2)c1)[C@@H]1CCCN1S(=O)(=O)c1ccc(F)cc1 [Example 115, (2S)-1-(4-fluorophenyl)sulfonyl-N-[[3-[[6-(trifluoromethyl)-3-pyridyl]oxy]phenyl]methyl]pyrrolidine-2-carboxamide]
– | 280 | O=C(NCc1cccc(Oc2ccc(C(F)(F)F)cc2)c1)[C@@H]1CC(F)CN1S(=O)(=O)c1ccc(F)cc1 (stereo in doubt) [Example 158, (2S,4R)-4-fluoro-1-(4-fluorophenyl)sulfonyl-N-[[3-[4-(trifluoromethyl)phenoxy]phenyl]methyl]pyrrolidine-2-carboxamide]
– | 9900 | CN(C)c1ccc(Oc2cccc(CNC(=O)[C@@H]3CCCN3S(=O)(=O)c3ccc(F)cc3)c2)cc1 [Example 117, (2S)-N-[[3-[4-(dimethylamino)phenoxy]phenyl]methyl]-1-(4-fluorophenyl)sulfonyl-pyrrolidine-2-carboxamide]
– | 60 | O=C(NCc1cccc(OCc2ccc(C(F)(F)F)cc2)c1)[C@@H]1CCCN1S(=O)(=O)c1ccncc1 [Example 216, (2S)-1-(4-pyridylsulfonyl)-N-[[3-[[4-(trifluoromethyl)phenyl]methoxy]phenyl]methyl]pyrrolidine-2-carboxamide]
– | 120 | O=C(NCc1cccc(OCc2ccc(C(F)(F)F)cc2)c1)[C@@H]1CCCN1S(=O)(=O)c1cccnc1 [Example 201, (2S)-1-(3-pyridylsulfonyl)-N-[[3-[[4-(trifluoromethyl)phenyl]methoxy]phenyl]methyl]pyrrolidine-2-carboxamide]
– | 67 | O=C(NCc1cccc(OCc2ccnc(C(F)(F)F)c2)c1)[C@@H]1CCCN1S(=O)(=O)c1ccc(F)cc1 [Example 135, (2S)-1-(4-fluorophenyl)sulfonyl-N-[[3-[[2-(trifluoromethyl)-4-pyridyl]methoxy]phenyl]methyl]pyrrolidine-2-carboxamide]
